Laboratory results reported in PubChem BioAssay (NCI).
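A five-concentration, 48-hour dose response in 96-well plates underlies each endpoint, interpolated linearly between surrounding concentrations. At the GI50, growth is halved. TGI: total growth inhibition.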

Tests used:
Assay in all cases: inhibition of tumour cell growth, NCI panel, 48 h
CCRF-CEM leukemia = system: CCRF-CEM leukemia
SR leukemia = system: SR leukemia
RPMI-8226 leukemia = system: RPMI-8226 leukemia
DU-145 prostate = system: DU-145 prostate
M14 melanoma = system: M14 melanoma
MALME-3M melanoma = system: MALME-3M melanoma
SN12C renal = system: SN12C renal
A549 NSCLC = system: A549 NSCLC
KM12 colon = system: KM12 colon
K-562 leukemia = system: K-562 leukemia
SW-620 colon = system: SW-620 colon
EKVX NSCLC = system: EKVX NSCLC
SF-539 CNS = system: SF-539 CNS
SNB-19 CNS = system: SNB-19 CNS
SF-268 CNS = system: SF-268 CNS
U251 CNS = system: U251 CNS
SK-MEL-28 melanoma = system: SK-MEL-28 melanoma
ACHN renal = system: ACHN renal
UACC-62 melanoma = system: UACC-62 melanoma
BT-549 breast = system: BT-549 breast
SK-MEL-5 melanoma = system: SK-MEL-5 melanoma
OVCAR-5 ovarian = system: OVCAR-5 ovarian
MDA-MB-435 = system: MDA-MB-435
UO-31 renal = system: UO-31 renal
RXF 393 renal = system: RXF 393 renal
HOP-62 NSCLC = system: HOP-62 NSCLC
SF-295 CNS = system: SF-295 CNS
MCF7 breast = system: MCF7 breast
HS 578T breast = system: HS 578T breast

With `COc1ccccc1/C=C/C(=O)c1ccc(OC)c(S(N)(=O)=O)c1` the GI50 (CCRF-CEM leukemia) was 2.53 µM, the TGI (CCRF-CEM leukemia) was 6.81 µM and the GI50 (SR leukemia) was 1.44 µM. The TGI (SR leukemia) was 6.2 µM, the GI50 (RPMI-8226 leukemia) was 2.49 µM and the TGI (RPMI-8226 leukemia) was 7.46 µM. The GI50 (DU-145 prostate) was 3.22 µM, the TGI (DU-145 prostate) was 12 µM and the GI50 (M14 melanoma) was 2.71 µM. For the same molecule, the TGI (M14 melanoma) was 11.8 µM, the GI50 (MALME-3M melanoma) was 3.99 µM and the TGI (MALME-3M melanoma) was 16.2 µM. It also gave a GI50 (SN12C renal) of 2.79 µM, a TGI (SN12C renal) of 10.4 µM and a GI50 (A549 NSCLC) of 3.11 µM. It also gave a TGI (A549 NSCLC) of 13 µM, a GI50 (KM12 colon) of 2.89 µM and a TGI (KM12 colon) of 10 µM. The GI50 (K-562 leukemia) was 0.349 µM, the TGI (K-562 leukemia) was 14.6 µM and the GI50 (SW-620 colon) was 2.86 µM. The TGI (SW-620 colon) was 10.8 µM, the GI50 (EKVX NSCLC) was 3.58 µM and the TGI (EKVX NSCLC) was 14.1 µM. For the same molecule, the GI50 (SF-539 CNS) was 2.25 µM, the TGI (SF-539 CNS) was 4.96 µM and the GI50 (SNB-19 CNS) was 4.02 µM. For the same molecule, the TGI (SNB-19 CNS) was 15.3 µM, the GI50 (SF-268 CNS) was 3.28 µM and the TGI (SF-268 CNS) was 12 µM. The GI50 (U251 CNS) was 2.58 µM, the TGI (U251 CNS) was 10.7 µM and the GI50 (SK-MEL-28 melanoma) was 4.49 µM. The TGI (SK-MEL-28 melanoma) was 15.8 µM, the GI50 (ACHN renal) was 3.38 µM and the TGI (ACHN renal) was 12.4 µM. It also gave a GI50 (UACC-62 melanoma) of 2.95 µM, a TGI (UACC-62 melanoma) of 12.3 µM and a GI50 (BT-549 breast) of 2.58 µM. The TGI (BT-549 breast) was 8.21 µM, the GI50 (SK-MEL-5 melanoma) was 3.85 µM and the TGI (SK-MEL-5 melanoma) was 14.2 µM. The GI50 (OVCAR-5 ovarian) was 2.2 µM, the TGI (OVCAR-5 ovarian) was 6.14 µM and the GI50 (MDA-MB-435) was 2.98 µM. It also gave a TGI (MDA-MB-435) of 11.5 µM, a GI50 (UO-31 renal) of 2.9 µM and a TGI (UO-31 renal) of 13.4 µM. The GI50 (RXF 393 renal) was 2.35 µM, the TGI (RXF 393 renal) was 8.86 µM and the GI50 (HOP-62 NSCLC) was 2.88 µM. For the same molecule, the TGI (HOP-62 NSCLC) was 10.3 µM, the GI50 (SF-295 CNS) was 2.66 µM and the TGI (SF-295 CNS) was 10.6 µM. It also gave a GI50 (MCF7 breast) of 2.67 µM, a TGI (MCF7 breast) of 11.3 µM and a GI50 (HS 578T breast) of 3.27 µM.
